# In patent publication US8859621B2, “Pharmaceutical formulations of modafinil” (Cephalon, Inc., priority 2002, dated 2014):
# What was measured:
# ADHD patients = assay: Example 2: 2-week fixed-dose study of 340 mg and 425 mg in children with ADHD; format: in vivo, human; settings: 340 mg (<30 kg) or 425 mg (>=30 kg) single dose per day, 2 weeks, baseline score 46.3
# Description: Safety and efficacy of the fixed doses of 340-mg and 425-mg were evaluated following a 2-week dosing period (1-week of titration and 1-week at steady state). The 340-mg dose was administered to children weighing <30 kg, and the 425-mg dose was administered to children weighing ≧30 kg.
# The 24 children enrolled in this study were predominately male (17M:7F) and predominately white (13W:9B:2Other). The average age (9.0 yrs), weight (32.9 kg) and height (133.7 cm) were similar to those seen in previous ADHD trials in children. The children <30 and ≧30 kg were approximately equaled divided. The average Attention Deficit Hyperactivity Disorder Rating Scale (ADHD-RS) total score at baseline was 46.3.
# [1] = human blood plasma concentration curve of modafinil; format: in vivo
# Description: FIG. 1 represents a human blood plasma concentration curve of modafinil after an initial dose of 100 mg of modafinil followed 4 hours later by a 200 mg dose of modafinil.
# FIG. 2 represents a human blood plasma concentration curve of modafinil after an initial dose of 200 mg of modafinil followed 4 hours later by a 100 mg dose of modafinil.
# FIG. 3 represents a human blood plasma concentration curve of modafinil after a single dose of 300 mg of modafinil.
# FIG. 4 represents a human blood plasma concentration curve of modafinil after a single dose of 100 mg of modafinil.
# [2] = test system: children with moderate to severe ADHD; assay: Example 1: 4-week placebo-controlled study of modafinil in children with ADHD; format: in vivo, human; settings: for ADHD symptoms, primary outcome measure (teacher rated ADHD Rating Scale-IV): vs placebo
# Description: A group of 248 children (average age: 9 years, average weight: 35.5 kilograms) were studied to determine the effect of modafinil on ADHD.
# After a 1 week washout period, children with moderate to severe ADHD received 4 weeks of treatment with placebo or modafinil in split morning/midday dosages of 100/200 mg, 200/100 mg, a single 300 mg dose, and 200/200 mg (400 mg total). Randomization called for equal distribution of the children by weight, except for the 200/200 mg dose group, which contained only children having a weight greater than or equal to 30 kg. The primary efficacy measure was the teacher rated ADHD Rating Scale-IV.
structure (smiles),measurement,setting,value
"NC(=O)C[S+]([O-])C(c1ccccc1)c1ccccc1 (centres unmarked) [modafinil, 2-[(diphenylmethyl)sulfinyl]acetamide]",improvement of ADHD-RS total score from baseline,ADHD patients,~70%
same,"blood concentrations of modafinil, amount less than predicted","[1]; single dose of 300 mg vs extrapolation of 100 mg unit dose data, FIG. 3",20-30%
same,time post administration at which the blood level of modafinil begins to decrease,"[1]; single dose of 300 mg, FIG. 3",about 2 hours
same,time post administration at which the blood plasma concentration of modafinil begins to decrease,"[1]; split dose 100 mg then 200 mg or 200 mg then 100 mg 4 hours later, FIGS. 1 and 2",about two
same,adverse event profile,[2]; 400 mg of modafinil (200/200 mg) vs the other doses,higher adverse event profile than the other doses
same,safety and tolerability,"[2]; children, 4 weeks of treatment, 300 to 400 mg total daily",safe and generally well tolerated
same,"ADHD symptoms, primary outcome measure (teacher rated ADHD Rating Scale-IV)","[2]; children, single 300 mg once daily dose, 4 weeks of treatment",significantly improved ADHD symptoms
same,"ADHD symptoms, primary outcome measure (teacher rated ADHD Rating Scale-IV)","[2]; children, split morning/midday dose 200/100 mg, 4 weeks of treatment",significantly improved ADHD symptoms
